Data: patent US20210361680A1, “INOSITOL-BASED IMMUNOTHERAPIES” (NormOxys, Inc., priority 2018, published 2021)
“Also recorded” adds a separate entry of the source.

Tests used:
immune cells (CD45+) = experiment: Flow cytometry of CD45+ immune cells in B16F10Luc tumors; format: in vivo, mouse; conditions: ITPP-treated versus control mice
Method: (§1) Murine B16F10 cells were implanted in C57BL6 or on Rj:NMRI-nu nude mice leg subcutaneously as we described previously by injecting a spheroid plug of 10^5 cells in 100 μl Matrigel (BD Biosciences).
(§2) ITPP was injected intraperitoneally (1.5 g/kg: in saline) twice a week over 3 weeks. It was started on day7 and repeated on day 8 post tumor inoculation (day 0). The following serial treatments were applied on days 15 and 16, 21 and 22. Tumors were extracted and weighted at the indicated times.
(§3) Tumor samples were immediately transferred in to PBS on ice. Biopsies were cut into small pieces and filtered through cell strainer after being dissociated by collagenase/dispase (Gibco). The samples were depleted of erythrocytes by red blood lysis buffer (eBiosciences).
(§4) Single cell suspensions were stained with mAbs for 1 h at 4° C. Acquisition was performed by one to four color flow cytometry using FACS LSR (Becton Dickinson). Dead cells were excluded on scatter profile. Data were acquired using CellQuest software (Becton Dickinson) on at least 100,000 events. Data were expressed as dot plot or histogram when comparison of fluorescence intensity is needed.
(§5) The following directly conjugated rat anti-mouse mAbs were used for the FACS staining: CD45-PerCP, CD11b-APC, CCR4-PE, CCR5-PE, CCR7-PE, CCR1O-PE and CXCR4-PE were from BD Biosciences. CD49b-APC was from Biolegend. […]

PD-L1 = experiment: Flow cytometry of PD-L1 expression in tumor cell populations; format: in vivo, mouse
Method: as §1, §2, §3
(§6) In specified experiments, tumors were depleted from CD45+ and/or CD31+ cells by magnetic separation (Easy Sep magnet, StemCell Technologies Inc).
as §4
(§7) The following directly conjugated rat anti-mouse mAbs were used for the FACS staining: CD45-PerCP, CD11b-APC, CCR4-PE, CCR5-PE, CCR7-PE, CCR1O-PE and CXCR4-PE were from BD Biosciences. CD49b-APC was from Biolegend. CD226-PE, CD4-FITC, CD25-APC, CD8a-FITC, PD-1-PE, CTLA-4-PE, PDL1-PE-Cy7, PDL2-FITC and CD47-APC were from eBiosciences. CD11c-FITC and GR1-FITC were from Milteny. CD206 was from Santa Cruz. We used anti-mouse Foxp3 staining set PE (eBioscience) for Foxp3 staining.

CXCR4 = experiment: Flow cytometry of CXCR4 expression in the tumor site; format: in vivo, mouse
Method: as §1, §2, §3, §6, §4, §7

[1] = system: CD45+CD4+CD25+FoxP3+ Treg cells; experiment: Flow cytometry of Treg cells in B16F10Luc tumors; format: in vivo, mouse
Method: as §1, §2, §3, §4, §5

CD45+CD4+CCR4+ Th2 cells = experiment: Flow cytometry of Th2 cells in B16F10 Luc melanoma; format: in vivo, mouse
Method: as §1, §2, §3, §4, §5

CX3CR1 = experiment: Flow cytometry of CX3CR1 expression in the tumor site; format: in vivo, mouse; conditions: endothelial enriched cell population
Method: as §1, §2, §3, §6, §4

B16F10 melanoma cells [2] = experiment: Tumor growth of B16F10 melanoma in C57BL6 mice under ITPP treatment; format: in vivo, mouse; conditions: day 23
Method: (§8) Murine B16F10 cells were implanted in C57BL6 or on Rj:NMRI-nu nude mice leg subcutaneously by injecting a plug of 10^5 cells in 100 μl Matrigel (BD Biosciences).
as §1, §2

CCR7 = experiment: Flow cytometry of CCR7 expression in the tumor site; format: in vivo, mouse; conditions: tumor cells
Method: as §1, §2, §3, §6
as §4, with “needed. […]” for “needed.”

CD31+ endothelial cells = experiment: Flow cytometry of CD31+ endothelial cells in B16F10Luc melanoma; format: in vivo, mouse; conditions: treated versus non-treated tumors
Method: as §1, §2, §3, §4, §5

Treg cells = experiment: Flow cytometry of Treg cells in 4T1 mammary carcinoma; format: in vivo, mouse; conditions: 4T1 mammary carcinoma bearing BalbC mice
Method: (§9) 4T1murine mammary carcinoma (10^4 cells as spheroid plug in Matrigel) cells were injected in the mammary fat pad of BALBc/by mice.
as §2, §3, §4, §5

PD-L2 = experiment: Flow cytometry of PD-L2 expression in tumor cell populations; format: in vivo, mouse; conditions: for reduction of the expression of PD-L2: compared with PD-L1
Method: as §1, §2, §3, §6, §4, §7

cells = conditions: cited from earlier work
[3] = in vivo; cited from earlier work
CTLA-4 = experiment: Flow cytometry of CTLA-4 expression among CD45+ cells; format: in vivo, mouse
Method: as §2, §3, §4
as §7, with “We used anti-mouse Foxp3 staining set PE (eBioscience) for Foxp3 staining.” left out

CCR10 = experiment: Flow cytometry of CCR10 expression in the tumor site; format: in vivo, mouse
Method: as §1, §2, §3, §6, §4, §7

CD47 = experiment: Flow cytometry of CD47 expression in B16F10 tumors; format: in vivo, mouse; conditions: tumor B16F10 melanoma cells
Method: as §1, §2, §3, §4, §5

[4] = system: M2 (CD45+CD11c+CD206+) macrophages; experiment: Flow cytometry of M2 macrophages in B16F10Luc melanoma; format: in vivo, mouse; conditions: melanoma tumor site
Method: as §1, §2, §3, §4, §5

activated NK cells = experiment: Flow cytometry of activated NK cells in 4T1 mammary carcinoma; format: in vivo, mouse; conditions: 4T1 cells bearing mice
Method: as §9, §2, §3, §4, §5

4T1 mammary carcinoma = experiment: Tumor growth of 4T1 mammary carcinoma in BALB/c-by mice under ITPP treatment; format: in vivo, mouse
Method: as §9, §2

[5] = system: M2 (CD45+CD11c+CD206+) macrophages; experiment: Flow cytometry of M2 macrophages in 4T1 mammary carcinoma; format: in vivo, mouse
Method: as §9, §2, §3, §4, §5

PD-1 [6] = experiment: Flow cytometry of PD-1 expressing CD45+ cells in 4T1 mammary carcinoma; format: in vivo, mouse
Method: as §9, §2, §3, §4, §5

NK cells [7] = experiment: Immunocytochemical labelling of NK cell infiltrate in B16F10 Luc tumors; format: in vivo, mouse; conditions: B16F10 Luc tumors extracted on day 23; non-treated: NK cells stuck in the vessels
Method: as §1, §2
Tumor tissues were embedded in tissue freezing medium (Tissue-Tek; Sakura) and snap frozen in liquid nitrogen. Tumor cryosections were fixed and stained with mouse anti-CD31 (rat monoclonal IgG2a; eBiosciences), anti-CD49b (Rat IgM; BD Pharmingen) or anti-Firefly Luciferase (Rabbit IgG; Abcam) before tetramethyl rhodamine isothiocyanate or fluorescein isothiocyanate secondary antibodies were added. Nuclei were stained with bisbenzimide H 33258 (Sigma-Aldrich).

NK cells [8] = experiment: Flow cytometry of NK cells in B16F10Luc tumors, NRj:NMRI nude mice; format: in vivo, mouse; conditions: B16F10-Luc tumors in nude mice
Method: as §1, §2, §3, §4, §5

CD45+CD11b+Gr1+ MDSCs = experiment: Flow cytometry of MDSCs in B16F10 Luc melanoma; format: in vivo, mouse
Method: as §1, §2, §3, §4, §5

[9] = system: M1 (CD45+CD11c+CD206−) macrophages; experiment: Flow cytometry of M1 macrophages in B16F10 Luc melanoma; format: in vivo, mouse
Method: as §1, §2, §3, §4, §5

NK cells [10] = experiment: Flow cytometry of NK cells in B16F10Luc tumors, C57BL6 mice; format: in vivo, mouse
Method: as §1, §2, §3, §4, §7

B16F10 melanoma cells [11] = experiment: Tumor growth of B16F10 melanoma in Rj:NMRI-nu nude mice under ITPP treatment; format: in vivo, mouse; conditions: ITPP 1.5 g/kg intraperitoneally, day 23, versus controls
Method: as §8, §1, §2

PD-1 [12] = experiment: Flow cytometry of PD-1 expressing CD45+ cells in B16F10 melanoma; format: in vivo, mouse
Method: as §1, §2, §3, §4, §5

CCR5 = experiment: Flow cytometry of CCR5 expression in the tumor site; format: in vivo, mouse
Method: as §1, §2, §3, §6
as §4, with “needed. […]” for “needed.”

[13] = CD31+ endothelial cells of the tumor

With O=P1(O)OC2C3OP(=O)(O)OP(=O)(O)OC3C3OP(=O)(O)OP(=O)(O)OC3C2OP(=O)(O)O1 (centres unmarked) [ITPP, myo-inositol tris pyrophosphate] the “proportion of immune cells (CD45+) in the tumor” value (immune cells (CD45+)) was “higher”, the “expression of PD-L1” value (PD-L1; [13]) was “considerably reduced and less” and the “expression of PD-L1” value (PD-L1; immune CD45+ cell population) was “strongly reduced”. The “expression of PD-L1” value (PD-L1; separated CD45− cells) was “clear reduction”, the “expression of PD-L1” value (PD-L1; whole tumor cell populations) was “clear reduction” and the CXCR4 expression (CXCR4; CD45+ cells) was “not affected”. The CXCR4 expression (CXCR4; endothelial enriched cell population) was “not affected”, the “cells expressing CXCR4” value (CXCR4; tumor cells) was “strongly reduced” and the “proportions of CD45+CD4+CD25+FoxP3+ Treg cells” value [1] was “very significantly decreased; also recorded: reduced”. The “proportion of Th2 cells (CD45+CD4+CCR4+) in the tumor site” value (CD45+CD4+CCR4+ Th2 cells) was “decrease; also recorded: reduced”, the “expression of the fractalkine receptor CX3CR1” value (CX3CR1) was “induced expression” and the tumor size (B16F10 melanoma cells [2]; B16F10 melanoma in normal C57BL6 mice, ITPP 1.5 g/kg intraperitoneally, versus controls) was “reduction of the tumor size; also recorded: half size of the controls”. The tumor growth (B16F10 melanoma cells [2]; melanoma cells, treatments stopped on day 21) was 50%, the CCR7 expression (CCR7) was “total reduction” and the “proportion of CD31+ endothelial cells” value (CD31+ endothelial cells) was “higher; also recorded: increased”. The Treg cell numbers (Treg cells) was “reducing effect; also recorded: reduced”, the “expression of PD-L2” value (PD-L2; [13]) was “reduced and less” and the “expression of PD-L2” value (PD-L2; immune CD45+ cell population) was “strongly reduced”. For the same molecule, the “reduction of the expression of PD-L2” value (PD-L2; separated CD45− cells) was “to a lesser extent”, the “reduction of the expression of PD-L2” value (PD-L2; whole tumor cell populations) was “to a lesser extent” and the “toxicity for cells treated separately” value (cells) was “not to be toxic”. For the same molecule, the “toxicity for the animals” value [3] was “not to be toxic”, the CTLA-4 expression (CTLA-4) was “No significant change” and the “cells expressing CCR10” value (CCR10; B16F10 cells) was “reduced”. For the same molecule, the “increase of cells expressing CCR10 (R)” value (CCR10; endothelial cells enriched population) was 2, the “increase of cells expressing CCR10 (R)” value (CCR10; immune cells (CD45+)) was 10 and the “intensity of CD47 expression” value (CD47) was “reduced”. The “proportion of M2 (CD45+CD11c+CD206+) macrophages” value [4] was “reduced; also recorded: decreased”, the “recruitment of activated NK cells” value (activated NK cells) was “higher recruitment” and the mammary carcinoma reduction (4T1 mammary carcinoma; 4T1, day 31, after arrest of treatment on day 21) was “up to 50%”. For the same molecule, the tumor size (4T1 mammary carcinoma; 4T1 mammary carcinoma in BALB/c-by mice, ITPP 1.5 g/kg intraperitoneally, day 31, versus controls) was “reduction of the tumor size; also recorded: half size of the controls”, the “proportion of M2 (CD45+CD11c+CD206+) macrophages” value [5] was “reduced; also recorded: decreased” and the “CD45+PD-1+ cells among whole tumor populations” value (PD-1 [6]) was “increase; also recorded: enriched”. For the same molecule, the “NK cell (CD49b+) infiltrate in the tumor” value (NK cells [7]) was “infiltrated the tumor mass”, the “proportions of NK cells found in the tumor before and after ITPP treatments (R)” value (NK cells [8]) was 2.25 and the “MDSCs proportion in the tumor” value (CD45+CD11b+Gr1+ MDSCs) was “reduced”. The “numbers of macrophages expressing the M1 (CD45+CD11c+CD206−) phenotype” value [9] was “tendency to increase; also recorded: tended to increase”, the “proportions of NK cells found in the tumor before and after ITPP treatments (R)” value (NK cells [10]; B16F10-Luc tumors in normal C57Bl6 mice) was 2.25 and the “number of NK cells in the tumor site” value (NK cells [10]; CD45+CD49+ NK cells, B16F10Luc tumors, C57BL6 mice) was “doubled”. For the same molecule, the “numbers of activated (CD45+CD49b+CD226+) NK cells” value (NK cells [10]; melanoma bearing mice, after ITPP treatment) was “increase”, the tumor size (B16F10 melanoma cells [11]) was “reduction of the tumor size; also recorded: half size of the controls” and the “CD45+PD-1+ cells among whole tumor populations” value (PD-1 [12]) was “increase; also recorded: enriched”. For the same molecule, the CCR5 expression (CCR5; CD45+ population) was “inverse effect” and the CCR5 expression (CCR5; tumor cells) was “radical effect”.
